Source: patent US20210323918A1, “COMPOSITIONS AND METHODS FOR SUPPRESSING AND/OR TREATING A GROWTH RELATED DISEASE AND/OR A CLINICAL CONDITION THEREOF” (CK Biotech Inc., priority 2018, published 2021)

System: growth plates of proximal tibiae of mice
Experiment: Growth plate senescence and longitudinal bone growth in mice
Assay type: in vivo
Description: Animals. Cxxc5^−/− mice were established in a previous study. See e.g., Kim H. Y. et al. (2015), CXXC5 is a negative feedback regulator of the Wnt/beta-catenin pathway involved in osteoblast differentiation. CELL DEATH DIFFER 22: 912-920. To manipulate growth plate senescence by estrogen, 3-week-old […] Cxxc5^−/− male mice received weekly intramuscular (i.m.) injections of either 70 μg/kg estradiol (E2) cypionate (Sigma-Aldrich) or vehicle (cottonseed oil) for 3 weeks. To investigate the effects of KY19382 treatment on longitudinal bone growth, C57BL/6 male mice were purchased from KOATECH (Gyeonggido, Korea). KY19382 (0.1 ing/kg) was administered daily by intraperitoneal (i.p.) injection to 3- and 7-week-old mice for 2 weeks or to 3-week-old mice for 10 weeks. For BrdU labeling experiments, mice were i.p. injected with 50 mg/kg BrdU (Sigma-Aldrich) before 24 hours to sacrifice. All animal procedures were approved by the Institutional Animal Care and Use Committee (IACUC) of Yonsei University (Korea) and conducted based on the guidelines of the Korean Food and Drug Administration.
Radiographic and histochemical analyses. Plain radiographs were taken using an X-ray apparatus (KODAK DXS 4000 Pro SYSTEM; Carestream Health Rochester, N.Y.). The tissues were fixed in 4% paraformaldehyde (PFA), decalcified in 10% EDTA (pH 7.4), dehydrated, embedded in paraffin, and sectioned to 4 μm thickness (Leica Microsystems, Wetzlar, Germany). The tissues sections were rehydrated and used for further analyses including H&E, TRAP, and itnmunohistochemical (IHC) staining. To perform IHC staining, the sections were incubated with citrate buffer (pH 6.0) at 80° C. for 30 minutes, with 0.05% trypsin working solution (pH 7.8) for 30 minutes at 37° C., or with 0.5% pepsin (Sigma-Aldrich) for 15 minutes at 37° C. Then, the sections were blocked with 5% normal goat serum (NGS; Vector Laboratories, Burlingame, Calif.) and 0.3% triton-x-100 in PBS for 1 hour at room temperature. For 3,3′-diaminobensidine (DAB) staining, the sections were incubated with 0.345% H2O2 for 15 minutes. Before incubating the sections with mouse primary antibody, mouse IgG was blocked using a M.O.M kit (Vector Laboratories). The sections were incubated at 4° C. overnight with the following primary antibodies: anti-β-catenin (BD Bioscience, San Jose, Calif., #610154; 1:50), anti-CXXC5 l (1:200; lab-made) anti-BrdU (DAKO, Carpinteria, Calif., M0744; 1:200), anti-COL2A1 (ThermoFisher Scientific, MA, PAS-11462; 1:100), anti-Ki67 (Abcam, Cambridge, UK, ab15580; 1:200), and anti-RUNX2 (Abeam, ab23981; 1:200). Then, the sections were incubated at room temperature for 1 hour with biotinylated anti-mouse (Vector Laboratories, BA-9200; 1:200) or biotinylated anti-rabbit (Vector Laboratories, BA-1000; 1:200) secondary antibodies. The sections were then incubated in avidin-biotin complex solutions (Vector Laboratories), stained with a DAB kit (Vector Laboratories) for 3-30 minutes, and counterstained with methyl green (Sigma-Aldrich). All incubations were conducted in humid chambers. […] For fluorescence staining, the sections were incubated with primary antibody at 4° C. overnight, followed by incubation with anti-mouse Alexa Fluor 488 (ThermoFisher Scientific, A11008; 1:200) or anti-rabbit Alex Fluor 555 (ThermoFisher Scientific, A21428; 1:200) secondary antibodies at room temperature for 1 hour. The sections were then counterstained with DAPI (Sigma-Aldrich) for 5 minutes and mounted in Gel/Mount media (Biomeda Corporation). All incubations were conducted in dark humid chambers. The fluorescent signals were visualized using a LSM700 META confocal microscope (Carl Zeiss Inc., Thornwood, N.Y.) at excitation wavelengths of 488 nm (Alexa Fluor 488), 543 nm (Alexa Fluor 555), and 405 nm (DAPI).
Immunoblot analyses. […] Protein samples were separated on a 8-12% sodium dodecylsulfate polyacrylamide gel electrophoresis (SDS-PAGE) and transferred to a nitrocellulose membrane (Whatman). […]

[1] = 3-week-old mice, 0.1 mg/kg daily for 2 weeks
[2] = 7-week-old mice, 0.1 mg/kg i.p. daily for 2 weeks

Row | Compound | length of tibiae (0.1 mg/kg daily for 10 weeks, mice from 3 to 13 weeks of age, vs vehicle) | height of each growth plate zone and BrdU-positive cells [1] | β-catenin-expressing chondrocytes [1] | number of TRAP-positive foci in the growth plate/trabecular interface (3-week-old mice, 0.1 mg/kg daily for 2 weeks, vs vehicle) | nuclear β-catenin in growth plate chondrocytes [2] | numbers of proliferative and hypertrophic chondrocytes per column (BrdU- and RUNX2-positive cells) [2] | total growth plate height, monitored by COL2A1 immunostaining [2] | β-catenin and chondrogenic markers (COL2A1, RUNX2, MMP13) in the growth plate, immunoblot [2] | TRAP-positive foci (mice treated from 7 to 9 weeks of age, 0.1 mg/kg, vs vehicle) | structural senescence of the tibial growth plate (Cxxc5−/− mice, E2 cypionate 70 μg/kg i.m. once a week for 3 weeks)
1 | CO/N=C1/C(=C2/C(=O)Nc3cc(Cl)c(Cl)cc32)Nc2ccccc21 [KY19382, 5,6-dichloroindirubin-3′-methoxime] | significantly increased | elevated | increased | not different | dramatically increased | increased numbers | significantly increased | increased | elevated | –
2 | 17β-estradiol [Compound E2] | – | – | – | – | – | – | – | – | – | hardly observed
